# Measurements reported in patent publication US5358945A, “Pyrimidine compound and pharmaceutically acceptable salts thereof” (Mitsui Petrochemical Industries, Ltd., priority 1990, dated 1994).
# Columns and labels:
# Mouse neuro 2a cells = experiment: Neurite outgrowth of mouse neuroblastoma neuro 2a cells (Table 7); assay type: cell-based; conditions: mean ± S.D.
# Procedure: The biological activities in vitro of the compounds of formula (I) on cells of the nervous system were tested. The cells tested were mouse neuroblastoma cell line neuro-2a (Dainippon Pharmaceutical Co., Ltd.) which have been established as the cells of the nervous system. The above nerve cells were grown in an incubator at 37° C. in the presence of 5% carbon dioxide gas exponentially, and the cultured for a certain period of time together with the compounds of formula (I).
# The effects of the compounds of this invention on neuroblastoma cells were examined by the following method.
# Mouse neuro 2a cells in the logarithmic growth period in the Dulbecco's modified Eagle's medium [DMEM, containing 100 units/ml of penicillin G sodium and 100 micrograms/ml of streptomycin sulfate] containing 10% of FCS were seeded in a 48-well plate so that the number of cells was 1,000 cells/well, and cultured for one day in 0.25 ml of the culture fluid in each well in an incubator containing 5% of carbon dioxide gas in air at 37° C. The medium was replaced by a medium containing each antibiotics and FCS and the cells were further cultured for 24 hours. Then, a 4% aqueous glutaraldehyde solution in the same amount as a medium (0.25 ml) was added, and the culture was left to stand at room temperature for 2 hours to fix the cells. After washing with water, a 0.05% aqueous solution of methylene blue was added to stain the cells. Under a microscope, the number of cells containing outgrown neurites (cells having at least one neurite with a length of at least two times as large as the long diameter of the cell) was counted visually, and the proportion of these cells in the entire cells was calculated. The well was observed over 5 or more visual fields (at least 2% of the entire surface area of the well) continuous to the left and right from a mark put at the center of the well, and more than 200 cells was counted. One drug compound was used in 6 different concentrations at most, and three runs were conducted for each concentration.
# mouse = experiment: Acute toxicity in mouse (Table 10); assay type: in vivo
# Procedure: The acute toxicity of the compounds of the invention was examined by the following method.
# Male ddy-strain 5-week old mice, 4-6 per group, were used as experimental animals. Each of the compounds was dissolved or suspended in saline and administered perorally (p.o.) or intraperitoneally (i.p.), and the toxicity of the compound was assessed 24 hours after the administration.
# [1] = test system: Mouse neuroblastoma cells NS-20Y; experiment: Neurite appearance in mouse neuroblastoma NS-20Y cells (Table 8); assay type: cell-based;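 further: cells grown in polyornithine-coated dishes, with timing counted from the start of culture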
# [2] = i.p., 24 hours after administration
Compound,Ratio of the number of cells having neurites with a length of at least two times as large as the diameter of cells to the total number of cells (Mouse neuro 2a cells; 0.1 mM),Estimated LD50 (mouse; [2]),"The number of cells in which neurites appeared/Total number of cells ([1]; 24 hour, 0.2 mM)",Ratio of the number of cells having neurites with a length of at least two times as large as the diameter of cells to the total number of cells (Mouse neuro 2a cells; 0.3 mM),"The number of cells in which neurites appeared/Total number of cells ([1]; 48 hour, 0.1 mM)","Estimated LD50 (mouse; in vivo, ip)",also measured
CN(C(=O)c1ccccc1)c1ccnc(N2CCc3ccccc32)n1 [Compound 104],5.2 ± 2.9%,> 1000 mg/kg,3/50,–,–,–,"Ratio of the number of cells having neurites with a length of at least two times as large as the diameter of cells to the total number of cells (Mouse neuro 2a cells; 0.03 mM): 3.4 ± 1.0%; The number of cells in which neurites appeared/Total number of cells ([1]; 24 hour, 0.5 mM): 4/50; The number of cells in which neurites appeared/Total number of cells ([1]; 48 hour, 0.2 mM): 4/50; The number of cells in which neurites appeared/Total number of cells ([1]; 48 hour, 0.5 mM): 3/50"
"CN(C(=O)c1ccc(C(F)(F)F)cc1)c1ccnc(N2CCC(c3ccccc3)CC2)n1.Cc1ccc(S(=O)(=O)O)cc1 [Compound 112, 4-(N-methyl-4-trifluoromethylbenzoylamino)-2-(4-phenylpiperidino) pyrimidine p-toluenesulfonate]",43.3 ± 1.8%,> 1000 mg/kg,–,21.6 ± 3.3%,2/50,–,"Ratio of the number of cells having neurites with a length of at least two times as large as the diameter of cells to the total number of cells (Mouse neuro 2a cells; 0.03 mM): 5.9 ± 0.9%; Ratio of the number of cells having neurites with a length of at least two times as large as the diameter of cells to the total number of cells (Mouse neuro 2a cells; 1 mM): 10.0 ± 3.8%; The number of cells in which neurites appeared/Total number of cells ([1]; 24 hour, 0.1 mM): 3/50"
COC(=O)c1ccc(C(=O)N(C)c2ccnc(N3CCC(c4ccccc4)CC3)n2)cc1 [Compound 120],8.6 ± 5.5%,–,3/50,–,–,> 1000 mg/kg,"Ratio of the number of cells having neurites with a length of at least two times as large as the diameter of cells to the total number of cells (Mouse neuro 2a cells; 0.03 mM): 12.6 ± 1.6%; The number of cells in which neurites appeared/Total number of cells ([1]; 48 hour, 0.2 mM): 3/50"
CN(C(=O)c1ccc(C#N)cc1)c1ccnc(N2CCC(c3ccccc3)CC2)n1 [Compound 128],4.3 ± 1.6%,> 1000 mg/kg,–,4.8 ± 1.2%,4/50,–,"The number of cells in which neurites appeared/Total number of cells ([1]; 24 hour, 0.5 mM): 3/50"
CN(C(=O)c1ccc(S(=O)(=O)F)cc1)c1ccnc(N2CCC(c3ccccc3)CC2)n1 [Compound 136],5.4 ± 1.7%,> 1000 mg/kg,–,10.3 ± 0.2%,–,–,"Ratio of the number of cells having neurites with a length of at least two times as large as the diameter of cells to the total number of cells (Mouse neuro 2a cells; 0.03 mM): 5.2 ± 1.8%; Ratio of the number of cells having neurites with a length of at least two times as large as the diameter of cells to the total number of cells (Mouse neuro 2a cells; 1 mM): 11.8 ± 1.4%; The number of cells in which neurites appeared/Total number of cells ([1]; 24 hour, 0.5 mM): 4/50; The number of cells in which neurites appeared/Total number of cells ([1]; 48 hour, 0.2 mM): 3/50"
CN(C(=O)c1ccc2ccccc2c1)c1ccnc(N2CCC(c3ccccc3)CC2)n1 [Compound 144],4.2 ± 0.6%,–,–,–,4/50,–,"Ratio of the number of cells having neurites with a length of at least two times as large as the diameter of cells to the total number of cells (Mouse neuro 2a cells; 0.01 mM): 5.1 ± 0.9%; The number of cells in which neurites appeared/Total number of cells ([1]; 24 hour, 0.5 mM): 3/50"
CN(C(=O)c1ccc(C=O)cc1)c1ccnc(N2CCC(c3ccccc3)CC2)n1 [Compound 152],–,–,–,–,3/50,> 1000 mg/kg,"Ratio of the number of cells having neurites with a length of at least two times as large as the diameter of cells to the total number of cells (Mouse neuro 2a cells; 0.01 mM): 5.2 ± 0.4%; Ratio of the number of cells having neurites with a length of at least two times as large as the diameter of cells to the total number of cells (Mouse neuro 2a cells; 0.03 mM): 16.5 ± 1.8%; The number of cells in which neurites appeared/Total number of cells ([1]; 24 hour, 0.1 mM): 2/50"
CN(C(=O)C12CC3CC(CC(C3)C1)C2)c1ccnc(N2CCC(c3ccccc3)CC2)n1 [Compound 160],11.4 ± 1.3%,–,2/50,23.5 ± 2.9%,3/50,500 to 1000 mg/kg,Ratio of the number of cells having neurites with a length of at least two times as large as the diameter of cells to the total number of cells (Mouse neuro 2a cells; 0.03 mM): 5.1 ± 1.2%; Ratio of the number of cells having neurites with a length of at least two times as large as the diameter of cells to the total number of cells (Mouse neuro 2a cells; 1 mM): 20.7 ± 2.7%
CN(C(=O)c1ccc2c(c1)C(=O)OC2=O)c1ccnc(N2CCC(c3ccccc3)CC2)n1 [Compound 168],–,–,3/50,8.7 ± 2.0%,–,> 1000 mg/kg,"Ratio of the number of cells having neurites with a length of at least two times as large as the diameter of cells to the total number of cells (Mouse neuro 2a cells; 1 mM): 14.6 ± 3.7%; The number of cells in which neurites appeared/Total number of cells ([1]; 48 hour, 0.5 mM): 3/50"
CN(C(=O)c1ccccc1)c1ccnc(N2Cc3ccccc3C2)n1 [Compound 184],0.9 ± 0.8%,–,–,–,3/50,–,"Ratio of the number of cells having neurites with a length of at least two times as large as the diameter of cells to the total number of cells (Mouse neuro 2a cells; 0.01 mM): 0.5 ± 0.8%; The number of cells in which neurites appeared/Total number of cells ([1]; 24 hour, 0.1 mM): 2/50"
O=CN1CCN(c2ccnc(N3CCCCC3)n2)CC1 [Compound 223],–,> 1000 mg/kg,–,–,–,–,–
"O=C(O)/C=C\C(=O)O.O=CN1CCN(c2ccnc(N3CCCCC3)n2)CC1 [Compound 224, 4-(N-formylpiperazino)-2-piperidino pyrimidine maleate]",8.9 ± 1.5%,–,–,21.4 ± 3.3%,3/50,–,"The number of cells in which neurites appeared/Total number of cells ([1]; 24 hour, 0.1 mM): 2/50"
O=C(c1ccccc1)N1CCN(c2ccnc(N3CCCCC3)n2)CC1 [Compound 232],–,–,3/50,–,4/50,> 1000 mg/kg,–
CC(=O)N1CCN(c2ccnc(N3CCCCC3)n2)CC1 [Compound 240],–,–,–,–,–,> 1000 mg/kg,"The number of cells in which neurites appeared/Total number of cells ([1]; 24 hour, 0.1 mM): 3/50; The number of cells in which neurites appeared/Total number of cells ([1]; 24 hour, 0.5 mM): 5/50; The number of cells in which neurites appeared/Total number of cells ([1]; 48 hour, 0.2 mM): 5/50; The number of cells in which neurites appeared/Total number of cells ([1]; 48 hour, 0.5 mM): 6/50"
O=C(c1ccccc1)N1CCN(c2ccnc(N3CCC(c4ccccc4)CC3)n2)CC1 [Compound 248],–,> 1000 mg/kg,3/50,–,3/50,–,–
CC(=O)N1CCN(c2ccnc(N3CCC(c4ccccc4)CC3)n2)CC1 [Compound 256],–,> 1000 mg/kg,3/50,–,4/50,–,"The number of cells in which neurites appeared/Total number of cells ([1]; 24 hour, 0.1 mM): 3/50; The number of cells in which neurites appeared/Total number of cells ([1]; 48 hour, 0.2 mM): 3/50"
CN(C(=O)c1ccc(O)cc1)c1ccnc(N2CCC(c3ccccc3)CC2)n1 [Compound 264],–,> 1000 mg/kg,–,–,–,–,"The number of cells in which neurites appeared/Total number of cells ([1]; 24 hour, 0.5 mM): 3/50; The number of cells in which neurites appeared/Total number of cells ([1]; 48 hour, 0.2 mM): 3/50"
O=C1CCCN1c1ccnc(N2CCCCC2)n1 [Compound 272],10.5 ± 2.5%,–,–,25.1 ± 2.7%,–,250 to 500 mg/kg,Ratio of the number of cells having neurites with a length of at least two times as large as the diameter of cells to the total number of cells (Mouse neuro 2a cells; 0.01 mM): 5.4 ± 0.4%; Ratio of the number of cells having neurites with a length of at least two times as large as the diameter of cells to the total number of cells (Mouse neuro 2a cells; 1 mM): 20.4 ± 4.9%
O=C1CCCN1c1ccnc(N2CCC(c3ccccc3)CC2)n1 [Compound 280],6.9 ± 1.4%,> 1000 mg/kg,–,7.5 ± 1.1%,–,–,Ratio of the number of cells having neurites with a length of at least two times as large as the diameter of cells to the total number of cells (Mouse neuro 2a cells; 0.01 mM): 7.1 ± 1.7%; Ratio of the number of cells having neurites with a length of at least two times as large as the diameter of cells to the total number of cells (Mouse neuro 2a cells; 1 mM): 8.1 ± 6.3%
O=C1CCCCN1c1ccnc(N2CCCCC2)n1 [Compound 288],–,> 1000 mg/kg,–,–,–,–,–
O=C1CCCCN1c1ccnc(N2CCC(c3ccccc3)CC2)n1 [Compound 296],–,> 1000 mg/kg,–,–,–,–,–
